Results reported in a melting point compilation (Tetko et al.; mined from patent text by program, amines drawn as free bases though some values may be those of a salt).

| Structure (SMILES) | melting point [°C] |
| --- | --- |
| COC(=O)CC(NC(=O)C1CC=CCC1)C(C)=O (stereo unspecified) | 69 to 70 |
| CN1c2ccc(-c3cccc4ccccc34)cc2Sc2cc(-c3cccc4ccccc34)ccc21 | 185 to 190 |
| O=C1CC2CC(O)(c3ccccc3)CC2C1 (stereo unspecified) | 158 to 159 |
| O=S(=O)(Cl)c1cc(S(=O)(=O)Cl)c2cc(S(=O)(=O)Cl)cc(S(=O)(=O)Cl)c2c1 | 263 to 270 |
| CC(C)(C)OC(=O)N1CO[C@@](O[Si](C)(C)C)(C(F)(F)F)[C@@H]1Cc1ccccc1 | 53 to 55 |
| CC1(CCS)C(=O)N2CC=CC(C(=O)O)N2C1=O (stereo unspecified) | 113 to 114 |
| COC(=O)C(=Cc1cccc(O)c1)NC(C)=O | 115 |
| CC(CS)C(=O)NC(CCCNC(=N)N)C(=O)O (stereo unspecified) | 100 |
| COc1cccc2c1CC=CC2 | 44.3 to 45 |
| Cc1ccsc1C(=O)NCCO[N+](=O)[O-] | 74 to 76 |
| CCOC(=O)c1c(C(F)(F)F)nc(C(F)(F)Cl)c(C(=O)OC)c1N(CC)CC | 31.5 to 33 |
| O=c1ccc2cn(C3OC(CO)C(O)C3O)c(=O)[nH]c-2n1 (stereo unspecified) | 189 to 190 |
| O=C(NCCCCC1CCSS1)NN1CCCCC1 (stereo unspecified) | 67 to 69 |
| COc1cc2c(c(Cl)c1Cl)C(=O)C(C1CCCC1)C2 (stereo unspecified) | 116 to 117 |
| COc1ccc(C2=NOC(CN=C=S)C2)cc1 (stereo unspecified) | 92 to 94 |
| CCCC(=Cc1cccc([N+](=O)[O-])c1)[N+](=O)[O-] | 45 to 47 |

| Structure (SMILES) | melting point [°C] |
| --- | --- |
| O=C(c1ccccc1)c1cc(Cl)ccc1-n1cnnc1 | 182 to 184 |
| Cc1ccc(CSc2nc3cc4c(cc3[nH]2)CCC4)nc1 | 157 to 158 |
| CN(C)C(=S)SC(C[N+](=O)[O-])c1ccc(Br)cc1 (stereo unspecified) | 79 to 81 |
| CCOCCc1cc(O)ccc1N | 102 |
| c1ccc(C2CC(n3ccnc3)c3ccccc3N2)cc1 (stereo unspecified) | 170 to 172 |
| COc1ccc(OC(C(=O)N(C)C)C2(O)CCCCC2)cc1 (stereo unspecified) | 98 to 99 |
| CCOC(=O)C1=NN(c2ccc(Cl)cc2)C2(N3CCCC3)CCCC12 (stereo unspecified) | 95 to 96 |
| c1cc(C2OCCO2)ccc1C1OCCO1 | 86 to 89 |
| CCCCn1c(C)nnc1SC(N)=O | 112 to 114 |
| COc1cccc(CN2CCCCC2C(=O)O)c1 (stereo unspecified) | 186 to 187 |
| Nc1nc2cc3[nH]c(-c4ccncc4)nc3cc2[nH]1 | > 320 |
| Cc1cc(F)c(-n2c(=O)oc3c(c2=O)CCC3)cc1OC(C)C | 131 to 133 |
| O=C1c2cc3ccccc3cc2OC12CC2 | 127 to 129 |
| CC(=O)OCC1OC(n2cc(C(I)=CI)c(=O)[nH]c2=O)C(OC(C)=O)C1OC(C)=O (stereo unspecified) | 83 to 85 |
| O=C(O)CSc1cc(=Nc2ccccc2)ss1 | 147 |
| O=C(O)c1cc(C(c2ccccc2)(c2ccccc2)c2ccccc2)ccc1O | 234 to 237 |

Continued, values first:

| melting point [°C] | Structure (SMILES) |
| --- | --- |
| 87 to 89 | CC(C)C(NC(=O)c1ccc(C(=O)NCc2ccc(Cl)cc2)cc1)C(=O)N1CCCC1C(=O)NC(C(=O)C(F)(F)F)C(C)C (mixture of isomers) |
| 217 to 218 | Nc1ccccc1Oc1c(C(=O)O)[nH]c2ccccc12 |
| 163 to 166 | CCOC(=O)c1cc(NC(=O)c2ccccc2OC(C)=O)cc(Cl)c1O |
| 219 to 222 | Nc1cc(Oc2ccc3c(C(=O)Nc4ccc(F)c(C(F)(F)F)c4)nccc3c2)ncn1 |
| 162 to 163 | O=C1c2ccc(F)cc2C(=O)N1c1cc([N+](=O)[O-])c(Cl)cc1F |
| 184 to 185 | O=C1CN(Cc2cnc(-c3ccc(C(CC4CCOCC4)c4ccc(S(=O)(=O)C5CC5)cc4)[nH]3)s2)C(=O)N1 (stereo unspecified) |
| 204 to 206 | O=C(CNc1ccc2[nH]c(=O)oc2c1)N1CCC(Cc2ccccc2)CC1 |
| 104 to 106 | O=C(CC(=O)OCc1ccccc1)OCc1ccccc1 |
| 87 to 89 | CN(Cc1ccccc1)C(=O)Cn1c(-c2ccc(Cl)cc2)nc2cccnc21 |
| 148 to 149 | CCCCCCCNC(=O)N(C)c1cccc(-c2ccc(C=CC(=O)O)c(F)c2)c1 |
| 166 to 171 | CC(=NOCc1ccccc1Nc1c(Cl)ccc(C)c1Cl)C(=O)O |
| 70 to 73 | CC(C)c1cccc(C(C)C)c1NC(=O)C1CCCC(Cc2ccccn2)(Cc2ccccn2)C1=O (stereo unspecified) |
| 100 to 102 | O=C1c2cc(OCc3ccccc3)ccc2OCC1Oc1ccccc1 (stereo unspecified) |
| 157 to 159 | CCOC(=O)N1c2cc(OC)c(OC)cc2[C@H](NC(=O)Cc2cc(C(F)(F)F)cc(C(F)(F)F)c2)C[C@@H]1C (relative stereo) |
| 89 | O=S(=O)(Cc1cccc2ccccc12)c1ccccc1 |
| 178 to 179 | CCCCN1C(=O)C2CC(c3ccc(N)cc3)(C2)C1=O |
| 87 to 89 | CCOC(=O)c1nc2cccc(F)c2nc1C |
| 147 to 148 | O=C(O)CCc1cn(Cc2ccc(OCc3ccccc3)cc2)nc1-c1ccccc1 |
| 196 | CCOc1ccc2c(c1)C(C)(c1cccc(O)c1)C(=O)N2S(=O)(=O)c1ccc(C(=O)NC(C)(C)C)cc1 (stereo unspecified) |
| 138 to 145 | CC(C)(C)[Si](C)(C)OC(CCCOC1CCCCO1)COc1ccc2c(=O)cc(-c3ccccc3)oc2c1 (stereo unspecified) |

| melting point [°C] | Structure (SMILES) |
| --- | --- |
| 92 to 93 | Cc1ccc(OCc2ccccc2)c2cnn(Cc3ccccc3)c12 |
| 161 to 162 | Cc1sc(CCc2ccc(C=CC=C3OC(=O)NC3=O)cc2)nc1-c1ccccc1 |
| 151 to 153 | CCc1nn2ccc3c(c2c1C(C)CNC(C)=O)CCO3 (stereo unspecified) |
| 175 | CC#CCOc1ccc(S(=O)(=O)C(C(=O)NO)c2ccc(-c3cccs3)cc2)cc1 (stereo unspecified) |
| 186 to 187 | CC1(C)CC(=O)C2=C(C1)NC(c1cccnc1)=NC2c1ccc(F)cc1Cl (stereo unspecified) |
| 172 to 174 | Cc1ccc2c(c1)c(-c1ccc(F)cc1)c(C)n2-c1ccncc1 |
| 62 to 63 | COc1ccc(OC)c2c1ccn2Cc1ccc(Cl)cc1 |
| 95 to 96 | O=Cc1cccc2ccc(F)cc12 |
| 170 to 172 | CC(=O)Nc1ccc(OC(C)C(=O)O)cc1 (stereo unspecified) |
| 162 to 165 | CCOC(=O)C=Cc1cc(-n2nc3ccc(Cl)cn3c2=O)c(F)cc1Cl |
| 128 to 131 | CCc1cccc(CNC[C@@H](O)[C@H](Cc2cc(F)cc(F)c2)NC(=O)c2ccc(CS(C)(=O)=O)s2)c1 |
| 256 to 259 | CNC(=O)c1ccc(N2CCN(Cc3cc4c(c(C5CC5)c3)OC(C)C(=O)N4)CC2)cc1 (stereo unspecified) |
| 257 to 259 | C=CCOc1ccc2c(c1)c(-c1cc3cccnc3n1S(=O)(=O)c1ccc(C)cc1)cn2C |
| 176 | Cn1ncnc1COc1nn2c(-c3ccccc3F)nncc2c1-c1cccc(F)c1F |
| 177 to 178 | CC1CC(=O)NN=C1c1ccc(NC(=O)Oc2ccc([N+](=O)[O-])cc2)cc1 (stereo unspecified) |
| 210 to 212 | O=Cc1ccc(-c2c(-c3nn[nH]n3)[nH]c3ccccc23)cc1 |
| > 90 | CCCCc1nn(-c2cc(C(=O)N(C)CCCC)ccc2Cl)c(=O)n1Cc1ccc(-c2ccccc2S(=O)(=O)NC(=O)c2ccccc2Cl)cc1 |
| 240 | CCC(=S)C1=C(C)NC2=C(C1)C(=O)c1ccccc12 |
| 108 to 110 | COC(=O)c1cc([N+](=O)[O-])ccc1ON=C(C)c1ccccc1 |
